From US5420339A, “Alpha-aryl or heteroaryl-substituted amide ester ACAT inhibitors” (Warner-Lambert Company, priority 1993, dated 1995)

Columns and labels:
[1] = in vivo adrenal toxicity screen in guinea pigs (Dominick et al.); set-up: species or system male guinea pigs of the Hartley strain; conditions: 100 mg/kg daily gavage, 2 weeks; for toxicity class to the adrenal gland: oleic acid vehicle
Description: Male guinea pigs of the Hartley strain (450-500 g) were obtained from Charles River and randomly divided into treatment groups. They were fed standard guinea pig chow ad libitum and dosed daily (AM) by gavage (100 mg/kg). The test compounds were dissolved or suspended in an oleic acid vehicle to facilitate absorption. After 2 weeks the animals were sacrificed by CO2 asphyxiation in the nonfasted state 16 hours after the last dose. Adrenal glands were weighed, fixed in 10% formalin, processed by routine paraffin techniques, sectioned, and then stained with hematoxylin and eosin for light microscopy. Toxicity was defined by the incidence, severity, and complexity of adrenal histopathologic alterations in the zona fasciculata (e.g., adrenal cortical atrophy, increased coarse vacuolation, single-cell necrosis, inflammatory cell infiltrates, mineralization/ectopic bone formation, and increased cytoplasmic eosinophilia).

[2] = APCC in vivo screen: blood cholesterol in rats on PCC diet with cholic acid; set-up: species or system male Sprague-Dawley rats; conditions: single dosing at 4 PM, PCC diet overnight with 1% or 0.5% cholic acid, sacrificed 8 AM
Description: The compounds were also evaluated in an in vivo screen designated APCC whereby male Sprague-Dawley rats (200 to 225 g) were randomly divided into treatment groups and dosed at 4 PM with either vehicle (CMC/Tween) or suspensions of compounds in vehicle. The normal chow diet was then replaced with the PCC diet with either 1% or 0.5% cholic acid. The rats consumed this diet ad libitum during the night and were sacrificed at 8 AM to obtain blood samples for cholesterol analysis using standard procedures. Statistical differences between mean cholesterol values for the same vehicle were determined using analysis of variance followed by Fisher-s least significant test.
The data appear in Table II where they are expressed as % change.

CCCCCCCCCCCCC(C)OC(=O)CC(=O)Nc1c(C(C)C)cccc1C(C)C (racemic) [(±)3-[[2,6-bis(1-methylethyl)phenyl]amino]-3-oxo-propanoic acid, 1-methyltridecyl ester]
atrophy of the zona reticularis (incidence) [1]: two of six | cytotoxic zonal atrophy of the zona fasciculata (incidence) [1]: six of six | increased coarse vacuoles (incidence) [1]: two of six | inflammatory cell infiltrates (incidence) [1]: four of six | necrosis of the adrenal cortex (incidence) [1]: four of six | toxicity class to the adrenal gland [1]: highly toxic to the adrenal gland

CCCCCCCCCCCCC(C)OC(=O)C(C(=O)Nc1c(C(C)C)cccc1C(C)C)c1ccccc1 (racemic) [Example 1, (±)-Benzeneacetic acid, α-[[[2,6-bis(1-methylethyl)phenyl]amino]carbonyl]-, 1-methyltridecylester]
APCC % Change TC [2]: -61% | increased coarse vacuoles (incidence) [1]: one of six | toxicity class to the adrenal gland [1]: nontoxic to the adrenal gland

CCCCCCCCCCCCOC(=O)C(C(=O)Nc1c(C(C)C)cccc1C(C)C)c1ccccc1 (racemic) [Example 3, (±)-Benzeneacetic acid, α-[[[2,6-bis(1-methylethyl)phenyl]amino]carbonyl]-, dodecyl ester]
APCC % Change TC [2]: -63% | increased coarse vacuoles (incidence) [1]: five of six | toxicity class to the adrenal gland [1]: nontoxic to the adrenal gland

CCCCCCCCCCC(C)OC(=O)C(C(=O)Nc1c(C(C)C)cccc1C(C)C)c1ccccc1 (racemic) [Example 4, (±)-Benzeneacetic acid, α-[[[2,6-bis(1-methylethyl)phenyl]amino]carbonyl]-, 1-methylundecyl ester]
APCC % Change TC [2]: -37%

CCCCCCCCCCCCCCOC(=O)C(C(=O)Nc1c(C(C)C)cccc1C(C)C)c1ccccc1 (racemic) [Example 5, (±)-Benzeneacetic acid, α-[[[2,6-bis(1-methylethyl)phenyl]amino]carbonyl]-, tetradecyl ester]
APCC % Change TC [2]: -49%

CCCCCCCCCCOC(=O)C(C(=O)Nc1c(C(C)C)cccc1C(C)C)c1ccccc1 (racemic) [Example 6, (±)-Benzeneacetic acid, α-[[[2,6-bis(1-methylethyl)phenyl]amino]carbonyl]-, decyl ester]
APCC % Change TC [2]: -58%

CCCCCC(C)OC(=O)C(C(=O)Nc1c(C(C)C)cccc1C(C)C)c1ccccc1 (racemic) [Example 7, (±)-Benzeneacetic acid, α-[[[2,6-bis(1-methylethyl)phenyl]amino]carbonyl]-, 1-methylhexyl ester]
APCC % Change TC [2]: -67%

CCCCCCCOC(=O)C(C(=O)Nc1c(C(C)C)cccc1C(C)C)c1ccccc1 (racemic) [Example 8, (±)-Benzeneacetic acid, α-[[[2,6-bis(1-methylethyl)phenyl]amino]carbonyl]-, heptyl ester]
APCC % Change TC [2]: -71%

CCCOC(=O)C(C(=O)Nc1c(C(C)C)cccc1C(C)C)c1ccccc1 (racemic) [Example 9, (±)-Benzeneacetic acid, α-[[[2,6-bis(1-methylethyl)phenyl]amino]carbonyl]-, propyl ester]
APCC % Change TC [2]: -20%

CCCCCCCCOC(=O)C(C(=O)Nc1c(C(C)C)cccc1C(C)C)c1ccccc1 (racemic) [Example 10, (±)-Benzeneacetic acid, α-[[[2,6-bis(1-methylethyl)phenyl]amino]carbonyl]-, octyl ester]
APCC % Change TC [2]: -56%

CCCCCCCCCOC(=O)C(C(=O)Nc1c(C(C)C)cccc1C(C)C)c1ccccc1 (racemic) [Example 11, (±)-Benzeneacetic acid, α-[[[2,6-bis(1-methylethyl)phenyl]amino]carbonyl]-, nonyl ester]
APCC % Change TC [2]: -67%

CCCCCCCCCCCCC(C)(C)OC(=O)C(C(=O)Nc1c(C(C)C)cccc1C(C)C)c1ccccc1 (racemic) [Example 12, (±)-Benzeneacetic acid, α-[[[2,6-bis(1-methylethyl)phenyl]amino]carbonyl]-, 1,1-dimethyltridecyl ester]
APCC % Change TC [2]: -26%

CCCCCCCCCCCCCCCCOC(=O)C(C(=O)Nc1c(C(C)C)cccc1C(C)C)c1ccccc1 (racemic) [Example 13, (±)-Benzeneacetic acid, α-[[[2,6-bis(1-methylethyl)phenyl]amino]carbonyl]-, hexadecyl ester]
APCC % Change TC [2]: -26%

CCCCCCCCCCCCCCCCCCOC(=O)C(C(=O)Nc1c(C(C)C)cccc1C(C)C)c1ccccc1 (racemic) [Example 14, (±)-Benzeneacetic acid, α-[[[2,6-bis(1-methylethyl)phenyl]amino]carbonyl]-, octadecyl ester]
APCC % Change TC [2]: -25%

CCCCC(C)(C)OC(=O)C(C(=O)Nc1c(C(C)C)cccc1C(C)C)c1ccccc1 (racemic) [Example 15, (±)-Benzeneacetic acid, α-[[[2,6-bis(1-methylethyl)phenyl]amino]carbonyl]-, 1,1-dimethylpentyl ester]
APCC % Change TC [2]: -72%

CCCCCCCCCCCCCCC(C)OC(=O)C(C(=O)Nc1c(C(C)C)cccc1C(C)C)c1ccccc1 (racemic) [Example 16, (±)-Benzeneacetic acid, α-[[[2,6-bis(1-methylethyl)phenyl]amino]carbonyl]-, 1-methylpentadecyl ester]
APCC % Change TC [2]: -37%

CCCCCCCCCCCCC(C)OC(=O)C(C(=O)Nc1c(OC)cc(OC)cc1OC)c1ccccc1 (racemic) [Example 17, (±)-Benzeneacetic acid, α-[[(2,4,6-trimethoxyphenyl)amino]carbonyl]-, 1-methyltridecyl ester]
APCC % Change TC [2]: -59%

CCCCCCCCCCCCOC(=O)C(C(=O)Nc1c(OC)cc(OC)cc1OC)c1ccccc1 (racemic) [Example 18, (±) -Benzeneacetic acid, α-[[(2,4,6-trimethoxyphenyl)amino]carbonyl]-, dodecyl ester]
APCC % Change TC [2]: -51%

CCCCCCCCCCCCOC(=O)C(C(=O)Nc1c(C(C)C)cccc1C(C)C)c1ccccn1 (racemic) [Example 19, (±)-2-pyridineacetic acid, α-[[[2,6-bis(1-methylethyl)phenyl]amino]carbonyl]-, dodecyl ester]
APCC % Change TC [2]: -43%
